According to the NIST ThermoML archive (doi:10.1007/s10765-011-1052-5):
“And” between values parts separate entries of the source, which are not always exact repeats. Equal entries are not always repeated.

Details: Fluid (supercritical or subcritical phases), Hot wire method

[HH] [hydrogen]
Details | thermal conductivity
323.19 K, 5191 kPa | 0.2032 W/m/K
323.19 K, 5193 kPa | 0.2032 W/m/K
323.19 K, 10094 kPa | 0.2067 W/m/K
323.19 K, 10100 kPa | 0.2065 W/m/K
323.2 K, 261 kPa | 0.1971 W/m/K and 0.197 W/m/K
323.2 K, 266 kPa | 0.1971 W/m/K
323.2 K, 267 kPa | 0.1973 W/m/K
323.2 K, 5186 kPa | 0.2029 W/m/K
323.2 K, 5188 kPa | 0.2031 W/m/K
323.2 K, 5190 kPa | 0.2031 W/m/K
323.2 K, 10084 kPa | 0.2067 W/m/K
323.2 K, 10087 kPa | 0.2067 W/m/K
323.2 K, 10095 kPa | 0.2065 W/m/K
323.2 K, 19987 kPa | 0.2147 W/m/K
323.2 K, 19989 kPa | 0.2142 W/m/K
323.2 K, 19998 kPa | 0.2146 W/m/K
323.2 K, 20000 kPa | 0.2142 W/m/K
323.2 K, 39984 kPa | 0.2311 W/m/K
323.2 K, 39993 kPa | 0.2306 W/m/K
323.2 K, 40006 kPa | 0.2312 W/m/K
323.2 K, 40011 kPa | 0.2304 W/m/K
323.2 K, 40020 kPa | 0.2313 W/m/K
323.2 K, 59948 kPa | 0.2488 W/m/K
323.2 K, 59968 kPa | 0.2483 W/m/K
323.2 K, 59985 kPa | 0.2488 W/m/K
323.2 K, 59986 kPa | 0.2482 W/m/K
323.2 K, 79963 kPa | 0.2659 W/m/K
323.2 K, 79984 kPa | 0.2654 W/m/K
323.2 K, 80001 kPa | 0.2659 W/m/K
323.2 K, 80012 kPa | 0.2648 W/m/K
323.2 K, 80034 kPa | 0.2657 W/m/K
323.2 K, 97707 kPa | 0.2804 W/m/K
323.2 K, 97716 kPa | 0.282 W/m/K
323.2 K, 97745 kPa | 0.2813 W/m/K
323.2 K, 97753 kPa | 0.2816 W/m/K
323.2 K, 97762 kPa | 0.2814 W/m/K
323.21 K, 19980 kPa | 0.2147 W/m/K
323.21 K, 59935 kPa | 0.2488 W/m/K
373.22 K, 598 kPa | 0.2223 W/m/K and 0.2224 W/m/K
373.22 K, 599 kPa | 0.2225 W/m/K
373.22 K, 5170 kPa | 0.2262 W/m/K and 0.226 W/m/K and 0.2261 W/m/K
373.22 K, 70084 kPa | 0.2757 W/m/K and 0.2758 W/m/K
373.22 K, 70086 kPa | 0.2758 W/m/K
373.22 K, 98187 kPa | 0.2983 W/m/K
373.22 K, 98197 kPa | 0.2988 W/m/K
373.23 K, 599 kPa | 0.2224 W/m/K
373.23 K, 4315 kPa | 0.2265 W/m/K
373.23 K, 4316 kPa | 0.2258 W/m/K and 0.2256 W/m/K
373.23 K, 5171 kPa | 0.2262 W/m/K
373.23 K, 10126 kPa | 0.2289 W/m/K
373.23 K, 10127 kPa | 0.2291 W/m/K
373.23 K, 10219 kPa | 0.2296 W/m/K and 0.2295 W/m/K and 0.2298 W/m/K
373.23 K, 30052 kPa | 0.2428 W/m/K and 0.2427 W/m/K
373.23 K, 30053 kPa | 0.2422 W/m/K
373.23 K, 30119 kPa | 0.2438 W/m/K
373.23 K, 30120 kPa | 0.2437 W/m/K and 0.2433 W/m/K
373.23 K, 30122 kPa | 0.2432 W/m/K
373.23 K, 49936 kPa | 0.2599 W/m/K and 0.2582 W/m/K and 0.2587 W/m/K
373.23 K, 50144 kPa | 0.2589 W/m/K and 0.2588 W/m/K
373.23 K, 69997 kPa | 0.2756 W/m/K
373.23 K, 69998 kPa | 0.2753 W/m/K and 0.2751 W/m/K
373.23 K, 97555 kPa | 0.3001 W/m/K
373.23 K, 97558 kPa | 0.2995 W/m/K
373.23 K, 97560 kPa | 0.2989 W/m/K
373.23 K, 98190 kPa | 0.2987 W/m/K
373.23 K, 98193 kPa | 0.2983 W/m/K
373.24 K, 10126 kPa | 0.2296 W/m/K
423.25 K, 5114 kPa | 0.2475 W/m/K
423.25 K, 10105 kPa | 0.2494 W/m/K and 0.2502 W/m/K
423.25 K, 30087 kPa | 0.262 W/m/K and 0.2619 W/m/K and 0.2615 W/m/K
423.25 K, 50102 kPa | 0.2764 W/m/K
423.25 K, 70147 kPa | 0.2939 W/m/K
423.25 K, 70150 kPa | 0.2927 W/m/K
423.25 K, 70155 kPa | 0.2923 W/m/K
423.25 K, 96975 kPa | 0.314 W/m/K
423.25 K, 96978 kPa | 0.3137 W/m/K
423.25 K, 96980 kPa | 0.3142 W/m/K
423.26 K, 403 kPa | 0.2426 W/m/K
423.26 K, 404 kPa | 0.2418 W/m/K
423.26 K, 5113 kPa | 0.2477 W/m/K
423.26 K, 5114 kPa | 0.2476 W/m/K
423.26 K, 10104 kPa | 0.2499 W/m/K
423.26 K, 50100 kPa | 0.2771 W/m/K and 0.2762 W/m/K
423.27 K, 400 kPa | 0.2421 W/m/K
423.27 K, 402 kPa | 0.2431 W/m/K
473.27 K, 10065 kPa | 0.2681 W/m/K and 0.2687 W/m/K
473.27 K, 30123 kPa | 0.2799 W/m/K
473.27 K, 30124 kPa | 0.28 W/m/K and 0.2803 W/m/K
473.27 K, 70155 kPa | 0.3079 W/m/K
473.27 K, 70156 kPa | 0.3088 W/m/K
473.27 K, 70160 kPa | 0.3069 W/m/K
473.27 K, 97457 kPa | 0.3277 W/m/K
473.27 K, 97459 kPa | 0.3262 W/m/K
473.27 K, 97460 kPa | 0.3282 W/m/K
473.28 K, 407 kPa | 0.2609 W/m/K
473.28 K, 408 kPa | 0.261 W/m/K
473.28 K, 409 kPa | 0.2611 W/m/K
473.28 K, 5166 kPa | 0.2673 W/m/K
473.28 K, 5167 kPa | 0.267 W/m/K and 0.2671 W/m/K
473.28 K, 10065 kPa | 0.2691 W/m/K
473.28 K, 50176 kPa | 0.294 W/m/K
473.28 K, 50178 kPa | 0.2937 W/m/K
473.28 K, 50179 kPa | 0.292 W/m/K
473.29 K, 408 kPa | 0.2613 W/m/K
573.26 K, 50202 kPa | 0.3283 W/m/K
573.26 K, 50208 kPa | 0.3253 W/m/K
573.26 K, 96979 kPa | 0.356 W/m/K
573.26 K, 96990 kPa | 0.3549 W/m/K
573.26 K, 97001 kPa | 0.3548 W/m/K
573.27 K, 5202 kPa | 0.3043 W/m/K and 0.3057 W/m/K and 0.3047 W/m/K
573.27 K, 10155 kPa | 0.3066 W/m/K and 0.3072 W/m/K
573.27 K, 10156 kPa | 0.3066 W/m/K
573.27 K, 30167 kPa | 0.3171 W/m/K and 0.3173 W/m/K and 0.3175 W/m/K
573.27 K, 50204 kPa | 0.3274 W/m/K
573.27 K, 70099 kPa | 0.3376 W/m/K
573.27 K, 70106 kPa | 0.3381 W/m/K
573.27 K, 70114 kPa | 0.3387 W/m/K
573.28 K, 365 kPa | 0.2934 W/m/K
573.28 K, 367 kPa | 0.2929 W/m/K
573.28 K, 369 kPa | 0.2931 W/m/K
672.87 K, 30056 kPa | 0.3514 W/m/K
672.87 K, 30063 kPa | 0.3522 W/m/K
672.87 K, 30074 kPa | 0.3514 W/m/K
672.87 K, 50096 kPa | 0.36 W/m/K
672.87 K, 50118 kPa | 0.3625 W/m/K
672.87 K, 98041 kPa | 0.3854 W/m/K
672.87 K, 98074 kPa | 0.3853 W/m/K
672.87 K, 98109 kPa | 0.3873 W/m/K
672.88 K, 5137 kPa | 0.342 W/m/K
672.88 K, 5140 kPa | 0.344 W/m/K
672.88 K, 5143 kPa | 0.3429 W/m/K
672.88 K, 5147 kPa | 0.343 W/m/K
672.88 K, 10059 kPa | 0.3459 W/m/K
672.88 K, 10060 kPa | 0.3456 W/m/K
672.88 K, 10061 kPa | 0.3445 W/m/K
672.88 K, 50107 kPa | 0.3616 W/m/K
672.88 K, 70012 kPa | 0.3693 W/m/K
672.88 K, 70030 kPa | 0.3711 W/m/K
672.88 K, 70044 kPa | 0.3699 W/m/K
672.89 K, 304 kPa | 0.3296 W/m/K and 0.329 W/m/K
672.89 K, 305 kPa | 0.329 W/m/K
672.89 K, 306 kPa | 0.3287 W/m/K
771.9 K, 29994 kPa | 0.3905 W/m/K
771.9 K, 30036 kPa | 0.3906 W/m/K
771.9 K, 49904 kPa | 0.3973 W/m/K
771.9 K, 49932 kPa | 0.3973 W/m/K
771.9 K, 70405 kPa | 0.408 W/m/K
771.9 K, 70444 kPa | 0.4037 W/m/K
771.9 K, 70484 kPa | 0.4065 W/m/K
771.9 K, 98954 kPa | 0.4176 W/m/K
771.9 K, 99008 kPa | 0.417 W/m/K
771.9 K, 99143 kPa | 0.4168 W/m/K
771.9 K, 99205 kPa | 0.4188 W/m/K
771.91 K, 5144 kPa | 0.3835 W/m/K
771.91 K, 10086 kPa | 0.3838 W/m/K
771.91 K, 10092 kPa | 0.3825 W/m/K
771.91 K, 10100 kPa | 0.3836 W/m/K
771.91 K, 10109 kPa | 0.3825 W/m/K
771.91 K, 30014 kPa | 0.3888 W/m/K
771.91 K, 30058 kPa | 0.39 W/m/K
771.91 K, 49879 kPa | 0.3964 W/m/K
771.91 K, 70520 kPa | 0.4053 W/m/K
771.92 K, 378 kPa | 0.3679 W/m/K
771.92 K, 381 kPa | 0.3675 W/m/K
771.92 K, 383 kPa | 0.3671 W/m/K
771.92 K, 386 kPa | 0.3678 W/m/K
771.92 K, 5136 kPa | 0.3832 W/m/K
771.92 K, 5140 kPa | 0.3835 W/m/K
